Assay results as given in paper PMC11541488, “Targeting the Plasmodium falciparum IspE Enzyme” (ACS Omega, 2024).
Where two headings read alike, the source gives them in different places. Each block holds one compound with its values, some of them ahead of it.

Experiments:
[1] = tested on: Ec IspE; conditions: cited from earlier work
[2] = molecular target: T1, PfIspE (Plasmodium falciparum, UniProt Q8I470); assay: Biochemical IspE assay (PK/LDH-coupled, NADH oxidation at 340 nm)
Excerpt: (§1) Here, we initiated a high-throughput screening (HTS) campaign on the PfIspE protein (Section S1 in the Supporting Information). The HTS was based on a proprietary library of 100 000 compounds from the BASF company and used the inhibitory potency of the compound against the IspE protein as the readout. The IC50 from the IspE assay was also a key parameter for our chemical optimization study. Therefore, it is important to note that the activity of the target enzyme in the IspE assay is coupled to the oxidation of NADH (which is followed spectrophotometrically at 340 nm) via a cascade of the auxiliary enzymes pyruvate kinase and lactate dehydrogenase (PK/LDH, Section S2 in the Supporting Information). Accordingly, to confirm that the effects observed in the IspE assay are due to inhibition of the target enzyme rather than the auxiliary enzymes, it is crucial to maintain a difference between the PK/LDH and IspE enzymatic activities. Furthermore, as we have previously reported, the biological testing of this chemical class requires careful handling such as storage of the compounds at −20 °C.[19] Based on what has been reported in the literature, a risk-mitigation strategy involves adding a substituent to the C-5 position of the thiazole ring,[20] which we have adhered to in this SAR exploration. […]
(§2) kBar. The lysate was then centrifuged at 15000 rpm for 80 minutes at 4 °C to remove cell debris, and the supernatant was collected.
(§3) 1.2. Protein Purification
(§4) The supernatant containing the target protein was applied to a Ni-chelating Sepharose column (1 cm x 20 cm) that had been equilibrated with the lysis buffer containing 15 mM imidazole. The column was washed with the same buffer supplemented with 15 mM imidazole until the OD280 reached the baseline. The bound proteins were then eluted from the column using a gradient of imidazole ranging from 15 mM to 600 mM, collected in a volume of 100 mL.
(§5) If further purification was required, size exclusion chromatography was performed using a Superdex200 (GE, 2 cm x 60 cm) column. The column was equilibrated with the lysis buffer without imidazole. The eluted IspE fractions from the previous chromatography step were directly applied to the top of the Superdex200 column.
(§6) The purity and integrity of the purified PfIspE protein were assessed using SDS-PAGE.
(§7) The molecular weight of the protein was estimated by comparison with standard protein markers. The concentration of the purified protein was determined using a NanoDrop.
(§8) The purified PfIspE protein was aliquoted and stored at - 80 °C until further use.
(§9) (Note: All procedures were performed at 4 °C unless otherwise specified ).
(§10) 2.0 Biochemical IspE assay
(§11) Escherichia coli IspE[1] and Plasmodium falciparum IspE[2] for IspE assays was expressed, isolated and purified as previously described. All other enzymes and chemicals used in the assays were purchased from Sigma-Aldrich (Taufkirchen, […]
For testing of compounds in the IspE assay, CDP-ME (0.2 mM) in 100 mM Tris-HCl, pH 7.6, 0.02% NaN3 (30 µL) was added to a well of the 384-well microplate, preloaded either with DMSO or with test compound dissolved in DMSO (3 µL). The reaction was started by addition of 100 mM Tris-HCl, pH 7.6, 10 mM MgCl2, 60 mM KCl, 10 mM dithiothreitol, 0.02% NaN3, 1 mM NADH, 2 mM phosphoenolpyruvate, 2 mM ATP, […]
pyruvate kinase (1 U mL–1), lactate dehydrogenase (1 U mL–1) and E. coli IspE (0.05 U mL–1) (27 µL per microplate well).
IC50 values were measured at CDP-ME concentration 100 µM. […]
(§12) For both kinds of assays the OD values in the microplate wells were monitored photometrically at 340 nm (room temperature) for 30 to 90 min in a plate reader (SpectraMax5, […], USA). Initial rate values were evaluated with a nonlinear regression method using the program Dynafit.[3]
Figure S1 : IC50 curve of compound 19.
(1 picture or pasted object on this page, not shown here)

[3] = molecular target: PK-LDH (pyruvate kinase/lactate dehydrogenase); assay: Pyruvate kinase assay (auxiliary enzymes PK/LDH); format: biochemical; conditions: determined for PfIspE IC50 < 100 μM
Excerpt: as §1, with “°C.[19]” for “°C.[19] Based on what has been reported in the literature, a risk-mitigation strategy involves adding a substituent to the C-5 position of the thiazole ring,[20] which we have adhered to in this SAR exploration.”
as §12, with “Dynafit.[3] […]” for “Dynafit.[3]”

[4] = tested on: PfNF54; assay: [3H]-hypoxanthine incorporation assay, asexual blood stage parasites; format: cell-based; conditions: Plasmodium falciparum
Experimental: However, direct comparison of the two assays is extremely difficult. Consequently, it is essential to note that the existence of additional target proteins within P. falciparum at this stage is neither confirmed nor ruled out. […]
the compound activity against P. falciparum NF54 asynchronous parasites, the [3H]- hypoxanthine incorporation assay was used as described.[4] Compounds dissolved in DMSO (10 mg/mL) are diluted in hypoxanthine - free culture media and was titrated in duplicates over a 64-fold range in 96 well plates. Parasite culture diluted to 0.3% parasitemia with 1.25% final haematocrit with hypoxantine-free medium was added at 100 µL to each well. Following a 48 h incubation, […] [3H]-hypoxanthine was added per well. Plates are incubated for another 24 h. Radioactivity was then measured using MicroBeta2 liquid scintillation counter (Perkin Elmer, Waltham, US) following parasite harvesting onto Microbeta FilterMate cell harvester (Perkin, Elmer, Waltham, US). The fifty percent inhibitory concentration (IC50) was then calculated by linear interpolation as described.[5]
For the background lysate, HEK293 cells (passage 27) were grown to 90% confluency in Dulbecco´s Modified Eagle´s Medium (DMEM high glucose, Sigma) supplemented with 2 mM L-glutamine and 10% (v/v) heat-inactivated fetal calf serum (FCS) in T-175 cell culture flasks. Lysis was performed using HEPES buffer (pH 7.5 , Roth) containing 1% Nonidet P 40 alternative (NP-40), 0.4% sodium dodecyl sulfate (SDS, Roth) and 1% sodium deoxycholate (Roth). The lysate was gently sonicated three times for 10 s on a Bandelin Sonoplus HD2070 at 10% amplitude. The lysate was cleared by centrifugation at 16.000 x g for 10 min. The protein content of the supernatant was determined using a BCA assay (ROTIQuant, Roth) according to the suppliers specifications and adjusted to 5 µg/µL to yield the stock solutions used in the […]
7.2 Reaction with probe 23
The protein samples were prepared to result in 50 µg lysate protein per lane and/or 10 µg of the respective recombinant protein (see section 1 of this SI). […]

[5] = molecular target: T2, EcIspE (Escherichia coli, UniProt P62615); assay: Analytical SDS-PAGE, photoprobe labelling and competition of probe 23 with compound 19; format: binding; conditions: for Probe binding to IspE (SDS-PAGE): probe 10 µM, native protein
T2 construct: made in house
T2 sequence (P62615 whole entry): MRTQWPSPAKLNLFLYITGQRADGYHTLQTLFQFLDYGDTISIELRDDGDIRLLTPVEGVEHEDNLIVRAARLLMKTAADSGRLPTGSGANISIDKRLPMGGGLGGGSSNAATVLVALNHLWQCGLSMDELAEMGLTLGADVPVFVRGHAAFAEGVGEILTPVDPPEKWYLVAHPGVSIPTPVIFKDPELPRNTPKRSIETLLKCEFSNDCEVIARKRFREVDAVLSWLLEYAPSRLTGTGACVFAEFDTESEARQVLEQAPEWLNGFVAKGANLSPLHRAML

[6] = molecular target: T1, PfIspE; assay: as above; format: binding; conditions: for Probe binding to IspE (SDS-PAGE): probe 10 µM, native protein
[7] = molecular target: T2, EcIspE; assay: Biochemical IspE assay (PK/LDH-coupled); conditions: Table S1; read-out: Inhibitory potency on EcIspE
Experimental: as §2, §3, §4, §5, §6, §7, §8, §9, §10, §11
as §12, with “Dynafit.[3] […]” for “Dynafit.[3]”

[8] = CDP-ME concentration 100 µM, read-out: IC50 PfIspE
[9] = parasite growth, 72 h total incubation, read-out: IC50 PfNF54
[10] = competitor 19 in 15 times excess
[11] = compound 19 in 15 times excess to probe 23 (10 µM)

T1 sequence (Q8I470 entry or part of it): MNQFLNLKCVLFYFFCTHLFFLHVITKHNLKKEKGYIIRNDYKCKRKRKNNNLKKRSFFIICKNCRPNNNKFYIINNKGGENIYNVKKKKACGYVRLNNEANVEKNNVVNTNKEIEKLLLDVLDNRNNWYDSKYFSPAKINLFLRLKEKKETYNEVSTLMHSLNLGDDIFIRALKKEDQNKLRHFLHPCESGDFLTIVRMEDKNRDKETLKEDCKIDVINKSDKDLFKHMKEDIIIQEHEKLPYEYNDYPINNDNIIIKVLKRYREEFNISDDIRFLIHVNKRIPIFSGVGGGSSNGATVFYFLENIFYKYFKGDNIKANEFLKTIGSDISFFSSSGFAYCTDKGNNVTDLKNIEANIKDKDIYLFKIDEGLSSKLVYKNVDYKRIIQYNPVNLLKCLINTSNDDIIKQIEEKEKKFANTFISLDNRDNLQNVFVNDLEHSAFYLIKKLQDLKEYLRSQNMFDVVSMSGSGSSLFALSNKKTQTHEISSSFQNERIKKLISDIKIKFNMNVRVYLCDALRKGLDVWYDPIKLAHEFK

Compound: Nc1nc(=O)n(C2CCCS2)cc1C#CCNS(=O)(=O)C1CC1 (stereo not shown) [Compound 1]
IC50 [1]: 8 ± 0.1 µM

Compound: CCOC(=O)CC1(n2cc(C#CCNS(=O)(=O)C3CC3)c(N)nc2=O)COC1 [Compound 1a]
IC50 [1]: 590 ± 10 µM

Compound: NCCC(=O)Nc1ccc(I)cc1Oc1cc(Cl)cc(Cl)c1 [Compound 2]
IC50 [1]: 63 ± 15 µM

Compound: Oc1csc(Nc2nccs2)n1 [Compound 7]
IC50 [1]: 160 ± 0.9 µM

Compound: C1=C(c2c[nH]c3ncccc23)CCNC1 [Compound 8]
IC50 [1]: 1500 ± 300 µM

IC50 [2, 8]: 405 ± 114 µM
Compound: CCn1c(C)cc(-c2csc(Nc3cccc(C(F)(F)F)c3)n2)c1C [Compound 9]

IC50 [2, 8]: > 500 µM
Compound: CCn1c(C)cc(-c2csc(Nc3ccccc3C(F)(F)F)n2)c1C [Compound 10]

IC50 [2, 8]: 128 ± 23 µM
Compound: CCn1c(C)cc(-c2csc(Nc3ccc(C(F)(F)F)cc3)n2)c1C [Compound 11]

IC50 [2, 8]: > 500 µM
Compound: CCn1c(C)cc(-c2csc(Nc3ccccc3)n2)c1C [Compound 12]

IC50 [2, 8]: > 500 µM
Compound: CCn1c(C)cc(-c2csc(Nc3ccc(N(C)C)cc3)n2)c1C [Compound 13]

IC50 [2, 8]: > 500 µM
Compound: CCn1c(C)cc(-c2csc(Nc3ccc(OC)cc3)n2)c1C [Compound 14]

IC50 [2, 8]: 111 ± 34 µM
Compound: CCn1c(C)cc(-c2csc(Nc3ccc(Cl)cc3)n2)c1C [Compound 15]

IC50 [2, 8]: 216 ± 53 µM
Compound: CCn1c(C)cc(-c2csc(Nc3ccc(Cl)nc3)n2)c1C [Compound 16]

IC50 [2, 8]: 143 ± 24 µM
Compound: CCn1c(C)cc(-c2csc(Nc3cc(Cl)cc(Cl)c3)n2)c1C [Compound 17]

Compound: CCn1c(C)cc(-c2csc(Nc3ccc(CN)cc3)n2)c1C [Compound 18]
IC50 [2]: 86 ± 44 µM | IC50 [3]: > 500 µM

Compound: CCn1c(C)cc(-c2csc(Nc3ccc4[nH]cnc4c3)n2)c1C [Compound 19]
Boost in IspE inhibitory potency compared to initial hit 9 [2]: 8 fold | IC50 [2, 8]: 53 ± 19 µM | IC50 [3]: > 500 µM | IC50 ([4]; corresponding to 0.82 μg/mL, read-out: IC50 PfNF54 converted to molar): ~2.4 µM | IC50 [4, 9]: 0.82 ± 0.01 µg/mL | Reduction in fluorescence of probe 23 label [5, 10]: 63% | Relative fluorescence of probe 23 label remaining [5, 11]: about 37% | Reduction in fluorescence of probe 23 label [6, 10]: 48% | Relative fluorescence of probe 23 label remaining [6, 11]: ~52%

IC50 [2, 8]: 121 ± 17 µM
Compound: CCn1c(C)cc(-c2csc(Nc3ccc4[nH]ncc4c3)n2)c1C [Compound 20]

Compound: C#CCn1c(C)cc(-c2csc(Nc3cccc(CC(F)(F)F)c3)n2)c1C [Compound 21]
IC50 [2, 8]: 286 ± 55 µM | IC50 [7]: > 500 µM

Compound: C#CCn1c(C)cc(-c2csc(Nc3ccc(CC(F)(F)F)cc3)n2)c1C [Compound 22]
IC50 [2, 8]: 192 ± 21 µM | IC50 [7]: 31 ± 13 µM

Compound: C#CCn1c(C)cc(-c2csc(Nc3ccc(C4(C(F)(F)F)N=N4)cc3)n2)c1C [Compound 23]
IC50 [2, 8]: 145 ± 42 µM | IC50 [4, 9]: 9.8 ± 2.9 µg/mL | IC50 [7]: 77 ± 16 µM | Probe binding to IspE (SDS-PAGE) [5]: high affinity | Probe binding to IspE (SDS-PAGE) [6]: high affinity

Compound: C#CCCC1(CC(=O)Nc2ccccc2)N=N1 [Compound 24, reference compound]
Probe binding to IspE (SDS-PAGE) [5]: does not show the same binding profile | Probe binding to IspE (SDS-PAGE) [6]: does not show the same binding profile
